Where a SMILES comes first, the peptide text is derived from it. [ ]: non-standard residue; d: D form. d(hArg(Et2)) = CCN=C(NCC)NCCCC[C@@H](N)C(=O)O; hArg(Et2) = CCN=C(NCC)NCCCC[C@H](N)C(=O)O; dPhe(4-Cl) = N[C@H](Cc1ccc(Cl)cc1)C(=O)O; d2Nal = N[C@H](Cc1ccc2ccccc2c1)C(=O)O; d3Pal = N[C@H](Cc1cccnc1)C(=O)O
What was measured:
[1] = Ovarian stimulation of egg donors under different pituitary suppression regimens; format: in vivo, human; settings: antagonist 6 cycles, agonist 4 cycles
Procedure: Optimal stimulation protocols giving the best chance of producing oocytes capable of producing NT-ESCs using SCNT were sought. The impact of GnRH agonists and antagonists used to suppress the pituitary function of egg donors were first assessed. Prior to stimulations, the anti-mullerian hormone (AMH) level and antral follicle counts (AFC) were measured for each individual egg donor (Table S3). Donors with higher AMH and AFC profiles are associated with high ovarian reserve and received the GnRH agonist Lupron® (4 cycles) while the remaining donors were provided with the GnRH antagonist (ganirelix, 6 cycles) (Table 3).
Ovarian stimulation protocols followed established clinical IVF guidelines as we described previously (Tachibana et al, 2013 supra). Briefly, a combination of recombinant follicle stimulating hormone (rFSH) and human menopausal gonadotropins (hMG) and either GnRH agonist (Lupron®, Tap Pharmaceutical Products, Lake Forest, Ill.) or antagonist (Ganirelix®, Merck & Co, Whitehouse Station, N.J.) were given. Human chorionic gonadotropin (hCG) was prescribed to trigger oocyte maturation. Self administration of injectable rFSH (sc, Follistim®, Merck & Co, Whitehouse Station, N.J.) commenced on cycle day 2 or 3 and continued for approximately 8-12 days. The starting gonadotropin dose was 75-125 IU/day and 1-2 A hMG (sc, Menopur®, Ferring Pharmaceuticals, Inc. Parsippany, N.J.); the dose was adjusted per individual response using an established step-down regimen until the day of hCG injection. Ovarian response and follicular growth were monitored by transvaginal ultrasound and measurements of serum estradiol levels. When two or more follicles reached >18 mm in diameter, subjects received hCG ([…], sc, Ovidrel®, EMDSerono, Rockland, Mass.) to trigger maturation. Thirty-six hours following hCG injection, subjects underwent oocyte retrieval via transvaginal follicular aspirations.

human SCNT embryos [2] = test: Human SCNT embryo development and NT-ESC derivation by GnRH agonist or antagonist treatment of oocyte donor; format: cell-based; settings: oocytes from treated donors
Procedure: A retrospective analysis of ovarian stimulation procedures was conducted in order to determine the effect of the number of oocytes retrieved per cycle on human SCNT embryo development and NT-ESC derivation outcomes. Oocyte donation cycles were divided into three groups based on the range of collected mature MII oocytes—10 or fewer oocytes per cycle (5 donors), between 11 to 15 oocytes (2 donors) and more than 16 oocytes per cycle (3 donors). While survival after enucleation, fusion, pronuclear formation and cleavage of SCNT embryos were similar between these groups, more embryos derived from the donors producing ≧16 MII oocytes/cycle arrested after the 8-cell stage than the other two groups (FIG. 5A). In addition, the quality of SCNT blastocysts also negatively correlated with the number of collected oocytes per cycle. […] The peak estradiol (E2) level measured in blood of egg donors prior to hCG priming positively correlated with the subsequent yield of oocytes (FIG. 10). […]
Optimal stimulation protocols giving the best chance of producing oocytes capable of producing NT-ESCs using SCNT were sought. The impact of GnRH agonists and antagonists used to suppress the pituitary function of egg donors were first assessed. Prior to stimulations, the anti-mullerian hormone (AMH) level and antral follicle counts (AFC) were measured for each individual egg donor (Table S3). […]

Monkey SCNT embryo [3] = test: Monkey SCNT embryo development after treatment with trichostatin A (TSA); format: cell-based, rhesus macaque
Procedure: (§1) However, the quality of such blastocysts and their potential to give rise to stable ESCs remained unknown until this current disclosure. A total of 16 monkey SCNT blastocysts produced with TSA treatment were plated on mitotically inactivated mouse embryonic fibroblast (mEF) feeders. None of these blastocysts produced NT-ESC lines (Table 1). Lower TSA concentrations as well as shorter exposure times to TSA had no effect on monkey SCNT blastocyst development and ESC isolation.
(§2) Oocyte collections, SCNT, embryo culture and NT-ESC isolation procedures were performed as previously described (Byrne et al, 2007 supra; Sparman et al., 2009, supra; Sparman et al, 2010 supra).

monkey SCNT blastocysts = test: Monkey NT-ESC isolation after treatment with TSA; format: cell-based, rhesus macaque
Procedure: as §1, §2

Monkey SCNT embryo [4] = settings: 37.5 nM TSA; from 4% without; cited from earlier work
human SCNT embryos [5] = test: Human SCNT with caffeine during enucleation and fusion: spindle formation and blastocyst development; format: cell-based
Procedure: As expected, somatic cell nuclei introduced into oocyte cytoplasts under these conditions efficiently formed spindle-like structures detectable under birefringence microscope (83.3%, 10/12) (FIG. 2D). […] Human SCNT blastocysts in this group contained visible, prominent ICMs similar to that observed for IVF embryos (FIG. 2E).
Enucleation of MII spindles were performed as described previously (Tachibana et al., 2013 supra). […] The droplet was covered with tissue culture oil and oocytes maintained at 37° C. for 10-15 min before spindle removal. The dish was then mounted on the stage of an inverted microscope (Olympus IX71®) equipped with a stage warmer (http://www.tokaihit.com) Narishige micromanipulators, Oosight™ Imaging System (www.cri-inc.com) and a laser objective (www.hamiltonthorne.com). An oocyte was positioned by a holding pipette so that the spindle was situated between the 2 o'clock and 4 o'clock position. The zona pellucida next to the spindle was drilled with a laser pulse and an enucleation pipette was inserted through the opening. A small amount of cytoplasm surrounded by plasma membrane and contacting spindle was aspirated into the pipette. Next, a disaggregated fibroblast was aspirated into a micropipette and briefly transferred to the drop containing HVJ-E extract (Ishihara Sangyo Kaisha Ltd). […]

[6] = TSA 10 nM, 12 h, 23 plated blastocysts

CCNC(=O)[C@@H]1CCCN1C(=O)[C@H](CCCNC(=N)N)NC(=O)[C@H](CC(C)C)NC(=O)[C@@H](CC(C)C)NC(=O)[C@H](Cc1ccc(O)cc1)NC(=O)[C@H](CO)NC(=O)[C@H](Cc1c[nH]c2ccccc12)NC(=O)[C@H](Cc1c[nH]cn1)NC(=O)[C@@H]1CCC(=O)N1 [GnRH agonist]
Peak E2 [1]: 2709 ± 1597.3 | SCNT embryo development beyond the 8-cell stage (human SCNT embryos [2]): impaired

CCN=C(NCC)NCCCC[C@H](NC(=O)[C@H](CC(C)C)NC(=O)[C@@H](CCCCNC(=NCC)NCC)NC(=O)[C@H](Cc1ccc(O)cc1)NC(=O)[C@H](CO)NC(=O)[C@@H](Cc1cccnc1)NC(=O)[C@@H](Cc1ccc(Cl)cc1)NC(=O)[C@@H](Cc1ccc2ccccc2c1)NC(C)=O)C(=O)N1CCC[C@H]1C(=O)N[C@H](C)C(N)=O [GnRH antagonist, ganirelix] (Ac-[d2Nal][dPhe(4-Cl)][d3Pal]SY[d(hArg(Et2))]L[hArg(Et2)]P[dA]-NH2)
# oocytes (MII oocytes collected per cycle, mean±SD) [1]: 11.7±5.6 | Peak E2 [1]: 2568.2 ± 806.1 | NT-ESC lines derived (human SCNT embryos [2]): six

CC(/C=C/C(=O)NO)=C\[C@@H](C)C(=O)c1ccc(N(C)C)cc1 [TSA, trichostatin A]
8-cell (%) (Monkey SCNT embryo [3]; TSA 5 nM for 12 h, N 212): (92.8) % | 8-cell, number (Monkey SCNT embryo [3]; TSA 5 nM for 12 h, N 212): 192 | Blastocysts (%) (Monkey SCNT embryo [3]; TSA 5 nM for 12 h, N 212): 14.5% | Blastocysts, number (Monkey SCNT embryo [3]; TSA 5 nM for 12 h, N 212): 30 | CM (%) (Monkey SCNT embryo [3]; TSA 5 nM for 12 h, N 212): (26.0) % | CM, number (Monkey SCNT embryo [3]; TSA 5 nM for 12 h, N 212): 58 | PN (%) (Monkey SCNT embryo [3]; TSA 5 nM for 12 h, N 212): (98.6) % | PN, number (Monkey SCNT embryo [3]; TSA 5 nM for 12 h, N 212): 207 | fused (%) (Monkey SCNT embryo [3]; TSA 5 nM for 12 h, N 212): (99.1) % | fused, number (Monkey SCNT embryo [3]; TSA 5 nM for 12 h, N 212): 210 | 8-cell (%) (Monkey SCNT embryo [3]; TSA 10 nM for 12 h, N 571): (93.7) % | 8-cell, number (Monkey SCNT embryo [3]; TSA 10 nM for 12 h, N 571): 494 | Blastocysts (%) (Monkey SCNT embryo [3]; TSA 10 nM for 12 h, N 571): 18.8% | Blastocysts, number (Monkey SCNT embryo [3]; TSA 10 nM for 12 h, N 571): 99 | CM (%) (Monkey SCNT embryo [3]; TSA 10 nM for 12 h, N 571): (27.9) % | CM, number (Monkey SCNT embryo [3]; TSA 10 nM for 12 h, N 571): 147 | PN (%) (Monkey SCNT embryo [3]; TSA 10 nM for 12 h, N 571): (94.4) % | PN, number (Monkey SCNT embryo [3]; TSA 10 nM for 12 h, N 571): 535 | fused (%) (Monkey SCNT embryo [3]; TSA 10 nM for 12 h, N 571): (99.3) % | fused, number (Monkey SCNT embryo [3]; TSA 10 nM for 12 h, N 571): 567 | 8-cell (%) (Monkey SCNT embryo [3]; TSA 10 nM for 24 h, N 108): (97.1) % | 8-cell, number (Monkey SCNT embryo [3]; TSA 10 nM for 24 h, N 108): 100 | Blastocysts (%) (Monkey SCNT embryo [3]; TSA 10 nM for 24 h, N 108): 24.3% | Blastocysts, number (Monkey SCNT embryo [3]; TSA 10 nM for 24 h, N 108): 25 | CM (%) (Monkey SCNT embryo [3]; TSA 10 nM for 24 h, N 108): (32.0) % | CM, number (Monkey SCNT embryo [3]; TSA 10 nM for 24 h, N 108): 33 | PN (%) (Monkey SCNT embryo [3]; TSA 10 nM for 24 h, N 108): (100) % | PN, number (Monkey SCNT embryo [3]; TSA 10 nM for 24 h, N 108): 104 | fused (%) (Monkey SCNT embryo [3]; TSA 10 nM for 24 h, N 108): (95.4) % | fused, number (Monkey SCNT embryo [3]; TSA 10 nM for 24 h, N 108): 104 | 8-cell (%) (Monkey SCNT embryo [3]; TSA 37.5 nM for 24 h, N 511): (90.3) % | 8-cell, number (Monkey SCNT embryo [3]; TSA 37.5 nM for 24 h, N 511): 418 | Blastocysts (%) (Monkey SCNT embryo [3]; TSA 37.5 nM for 24 h, N 511): 18.4% | Blastocysts, number (Monkey SCNT embryo [3]; TSA 37.5 nM for 24 h, N 511): 85 | CM (%) (Monkey SCNT embryo [3]; TSA 37.5 nM for 24 h, N 511): (23.1) % | CM, number (Monkey SCNT embryo [3]; TSA 37.5 nM for 24 h, N 511): 107 | PN (%) (Monkey SCNT embryo [3]; TSA 37.5 nM for 24 h, N 511): (99.0) % | PN, number (Monkey SCNT embryo [3]; TSA 37.5 nM for 24 h, N 511): 498 | fused (%) (Monkey SCNT embryo [3]; TSA 37.5 nM for 24 h, N 511): (98.4) % | fused, number (Monkey SCNT embryo [3]; TSA 37.5 nM for 24 h, N 511): 503 | effect on blastocyst rates (Monkey SCNT embryo [3]; reducing TSA concentration to 10 nM or shortening exposure from 24 h to 12 h): did not affect blastocyst rates | # NT-ESCs (monkey SCNT blastocysts; TSA 5 nM, 12 h, 7 plated blastocysts): 0 | # NT-ESCs (monkey SCNT blastocysts; [6]): 3 | # NT-ESCs (%) (monkey SCNT blastocysts; [6]): 13% | # NT-ESCs (monkey SCNT blastocysts; TSA 10 nM, 24 h, 4 plated blastocysts): 0 | development of monkey SCNT embryos to blastocysts (Monkey SCNT embryo [4]): 18%

Cn1c(=O)c2c(ncn2C)n(C)c1=O [caffeine]
blastocyst development of caffeine treated embryos (human SCNT embryos [5]; 1.25 mM caffeine during enucleation and fusion): 23.5% | somatic cell nuclei forming spindle-like structures (human SCNT embryos [5]; 1.25 mM caffeine during enucleation and somatic cell fusion, 10/12): 83.3%
